From ChEMBL document CHEMBL2407072 (Eur J Med Chem, 2013) come the findings set out here.

The structures appear in SMILES notation.

The test system of data set [1] is B16-F10. The data set is described as follows: cells. The settings on record: Mus musculus, B16-F10, 48 h.
Description: Cytotoxicity against mouse B16F10 cells after 48 hrs by CCK8 assay
Data set [2] deals with MCF7. The settings on record: Homo sapiens, MCF7, 48 h.
In data set [3] the target is Carbonic anhydrase 9 (Homo sapiens, UniProt Q16790). The data set is described as follows: Inhibition of human recombinant CA9 using 4-nitrophenylacetate as substrate preincubated for 15 mins by stopped-flow CO2 hydration assay.
For data set [4], the system named is A549. Put plainly: Induction of apoptosis in human A549 cells assessed as necrotic cells at 40 ug/ml after 48 hrs using propidium iodide staining by FACS assay. The class given is functional.
Data set [5] deals with A549. The data set is described as follows: Induction of apoptosis in human A549 cells assessed as viable cells at 160 ug/ml after 48 hrs using propidium iodide staining by FACS assay. The class given is functional. The settings on record: A549, 48 h, read-out: Activity. Background: In flow cytometry, cells or beads pass a laser one at a time.
In data set [6] the test system is A549. Put plainly: Induction of apoptosis in human A549 cells assessed as late apoptotic cells at 40 ug/ml after 48 hrs using propidium iodide staining by FACS assay. The class given is functional.
Data set [7] has as its system A549. The data set is described as follows: Induction of apoptosis in human A549 cells assessed as early apoptotic cells at 2.5 ug/ml after 48 hrs using propidium iodide staining by FACS assay. The class given is functional.
Data set [8] has as its system A549. The data set is described as follows: Induction of apoptosis in human A549 cells assessed as viable cells at 2.5 ug/ml after 48 hrs using propidium iodide staining by FACS assay. The data set is classed as functional. The settings on record: A549, 48 h, read-out: Activity.
The subject of data set [9] is A549. Put plainly: Induction of apoptosis in human A549 cells assessed as viable cells at 40 ug/ml after 48 hrs using propidium iodide staining by FACS assay. The data set is classed as functional. The settings on record: A549, 48 h, read-out: Activity.
The subject of data set [10] is A549. The data set is described as follows: Induction of apoptosis in human A549 cells assessed as late apoptotic cells at 160 ug/ml after 48 hrs using propidium iodide staining by FACS assay. The data set is classed as functional.
For data set [11], the system named is A549. Put plainly: Induction of apoptosis in human A549 cells assessed as early apoptotic cells at 10 ug/ml after 48 hrs using propidium iodide staining by FACS assay. The data set is classed as functional.
Data set [12] deals with A549. Put plainly: Induction of apoptosis in human A549 cells assessed as early apoptotic cells at 160 ug/ml after 48 hrs using propidium iodide staining by FACS assay. The data set is classed as functional.
Data set [13] concerns A549. Put plainly: Induction of apoptosis in human A549 cells assessed as viable cells at 10 ug/ml after 48 hrs using propidium iodide staining by FACS assay. The class given is functional. The conditions noted are these: A549, 48 h, read-out: Activity.
Data set [14] concerns A549. The data set is described as follows: Induction of apoptosis in human A549 cells assessed as early apoptotic cells at 40 ug/ml after 48 hrs using propidium iodide staining by FACS assay. The data set is classed as functional.
The subject of data set [15] is A549. Put plainly: Induction of apoptosis in human A549 cells assessed as late apoptotic cells at 10 ug/ml after 48 hrs using propidium iodide staining by FACS assay. The class given is functional.
The test system of data set [16] is A549. The data set is described as follows: Induction of apoptosis in human A549 cells assessed as necrotic cells at 160 ug/ml after 48 hrs using propidium iodide staining by FACS assay. The class given is functional.
Data set [17] has as its system A549. The data set is described as follows: Induction of apoptosis in human A549 cells assessed as necrotic cells at 10 ug/ml after 48 hrs using propidium iodide staining by FACS assay. The data set is classed as functional.
Data set [18] concerns A549. The data set is described as follows: Induction of apoptosis in human A549 cells assessed as necrotic cells at 2.5 ug/ml after 48 hrs using propidium iodide staining by FACS assay. The class given is functional.
Data set [19] deals with A549. The data set is described as follows: Induction of apoptosis in human A549 cells assessed as late apoptotic cells at 2.5 ug/ml after 48 hrs using propidium iodide staining by FACS assay. The data set is classed as functional.
The nature of data set [20]: Cytotoxicity against human macrophages assessed as microscopically detectable alteration of normal cell morphology after 48 hrs […]. The data set is classed as cell-based. The settings on record: macrophage. For orientation: Tetrazolium dyes change colour on reduction, which living cells bring about.

As usually defined, the IC50 is the point on the concentration scale where inhibition reaches its midpoint. As for `COc1cccc2c1C(=O)c1c(O)c3c(c(O)c1C2=O)C[C@@](O)(C(=O)CO)C[C@@H]3O[C@H]1C[C@H](N)[C@H](O)[C@H](C)O1` [DOXORUBICIN], the IC50 in data set [1] came to 72 nM.
Consider `CC(C)(C)c1cc(C(C)(C)C)c2oc(=O)c(/C=N/c3ccc(S(=O)(=O)NC(=N)N)cc3)c(Cl)c2c1`, for which the results for the IC50 in [1], in [2] and in data set [3] were 250 nM, 18 nM and 74 nM, respectively.
Consider `Cc1cc(C)nc(NS(=O)(=O)c2ccc(/N=C/c3c(Cl)c4ccccc4oc3=O)cc2)n1`, for which the Activity stood at 2.04% in data set [4]; 6.28% in [6]; 6.8% in data set [7]; 9.62% in data set [10]; 5.09% in [11]; 9.24% in [12]. Moreover, the Activity in data set [14] stood at 6.54%; in [15] it was 12.1%; in data set [16], 8.99%; in [17] it was 1.58%; in [18] it was 4.14%; in [19], 19.6%. Also, the viability at 160 µg/mL in [5] turned out to be 72.2%. Moreover, the viability at 2.5 µg/mL in data set [8] is 69.4%. Moreover, the IC50 in data set [1] worked out at 170 nM; in [2] it was 20 nM; in data set [3], 124 nM. In addition, the viability at 40 µg/mL in data set [9] was found to be 85.1%. Besides, the viability at 10 µg/mL in data set [13] turned out to be 81.2%.
In the case of `Cc1cc(NS(=O)(=O)c2ccc(/N=C/c3c(Cl)c4cc(C(C)(C)C)cc(C(C)(C)C)c4oc3=O)cc2)no1`, the IC50 came to 240 nM in [1], 64 nM in data set [2] and 43 nM in data set [3].
As to `O=c1oc2ccccc2c(Cl)c1/C=N/c1ccc(S(=O)(=O)Nc2nccs2)cc1`, the figures for the IC50 in data set [1], in data set [2] and in [3] were 300 nM, 160 nM and 138 nM, respectively.
Consider `Cc1ccc2oc(=O)c(/C=N/c3ccc(S(=O)(=O)Nc4cc(C)on4)cc3)c(Cl)c2c1`, for which the IC50 in [1] came to 250 nM; in data set [2] it was 16 nM; in [3], 52 nM.
Turning to `CC(C)(C)c1cc(C(C)(C)C)c2oc(=O)c(/C=N/c3ccc(S(=O)(=O)Nc4nccs4)cc3)c(Cl)c2c1`, the IC50 was found to be 160 nM in data set [1], 12 nM in [2] and 51 nM in data set [3].
Regarding `Cc1ccc2oc(=O)c(/C=N/c3ccc(S(N)(=O)=O)cc3)c(Cl)c2c1`, the IC50 in data set [1] was found to be 360 nM; in data set [2] it was 270 nM; in data set [3], 85 nM. The MCC in [20] is 1.2 µmol.
With `Cc1cc(NS(=O)(=O)c2ccc(/N=C/c3c(Cl)c4ccccc4oc3=O)cc2)no1`, the IC50 in [1] stood at 270 nM; in [2], 12 nM; in data set [3], 141 nM. The MCC in data set [20] stood at 0.42 µmol.
With `Cc1ccc2oc(=O)c(/C=N/c3ccc(S(=O)(=O)Nc4nc(C)cc(C)n4)cc3)c(Cl)c2c1`, the IC50 in data set [1] was 300 nM; in [2], 25 nM; in data set [3] it was 67 nM.
For the compound `N=C(N)NS(=O)(=O)c1ccc(/N=C/c2c(Cl)c3ccccc3oc2=O)cc1`, the IC50 was found to be 180 nM in data set [1], 58 nM in data set [2] and 188 nM in data set [3]. For the same compound, in [20], the MCC stood at 0.62 µmol.
With `Cc1ccnc(NS(=O)(=O)c2ccc(/N=C/c3c(Cl)c4ccccc4oc3=O)cc2)n1`, the values for the concentration for half-maximal inhibition (IC50) in data set [1], in data set [2] and in data set [3] were 230 nM, 31 nM and 84 nM, respectively.
Regarding `Cc1cc(C)nc(NS(=O)(=O)c2ccc(/N=C/c3c(Cl)c4cc(C(C)(C)C)cc(C(C)(C)C)c4oc3=O)cc2)n1`, the IC50 was determined as 220 nM in data set [1], 8.8 nM in data set [2] and 90 nM in data set [3]. In [20], the MCC amounted to 0.73 µmol.
As to `Cc1ccnc(NS(=O)(=O)c2ccc(/N=C/c3c(Cl)c4cc(C(C)(C)C)cc(C(C)(C)C)c4oc3=O)cc2)n1`, the values for the IC50 in data set [1], in data set [2] and in data set [3] were 190 nM, 32 nM and 24 nM, respectively. Also, the MCC in data set [20] was 0.36 µmol.
Consider `NS(=O)(=O)c1ccc(/N=C/c2c(Cl)c3ccccc3oc2=O)cc1`, for which the results for the IC50 in [1], in [2] and in data set [3] were 300 nM, 120 nM and 91 nM, respectively. In addition, the MCC in data set [20] was 0.58 µmol.
The like results for `Cc1ccc2oc(=O)c(/C=N/c3ccc(S(=O)(=O)Nc4nccc(C)n4)cc3)c(Cl)c2c1` were, in that order, 270 nM, 61 nM, 48 nM and 0.56 µmol.
`CC(C)(C)c1cc(C(C)(C)C)c2oc(=O)c(/C=N/c3ccc(S(N)(=O)=O)cc3)c(Cl)c2c1`: the IC50 in data set [1] was 240 nM; in data set [2] it was 16 nM; in data set [3] it was 34 nM. The MCC in data set [20] was 0.58 µmol.
In the case of `Cc1ccc2oc(=O)c(/C=N/c3ccc(S(=O)(=O)NC(=N)N)cc3)c(Cl)c2c1`, the IC50 was determined as 240 nM in data set [1], 67 nM in data set [2] and 50 nM in data set [3].
In the case of `Cc1ccc2oc(=O)c(/C=N/c3ccc(S(=O)(=O)Nc4nccs4)cc3)c(Cl)c2c1`, the concentration for half-maximal inhibition (IC50) came to 280 nM in data set [1], 33 nM in data set [2] and 87 nM in data set [3].
